According to the supplement of paper PMC12420376:

Columns and labels:
[1] = tested on: Gem129 (ex vivo spheroids of an HRD-positive high-grade serous ovarian cancer); assay: cell viability relative to untreated control (ex vivo patient spheroids); higher = less cytotoxic; settings: 72 h
Protocol: (§1)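 Ex vivo 3D spheroid cultures from dissociated tumours of HGSOC patients (DET3CT platform) were treated for 72 h with dose matrices of carboplatin combined with birinapant or vorinostat (nM). Live (TMRM) and dead (POPO-1) cells were imaged and viability was expressed as % of untreated control.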

[2] = tested on: Gem243 (ex vivo spheroids of an HRD-positive high-grade serous ovarian cancer); assay: as above; settings: 72 h
Protocol: as §1

O=C(O)C1(C(=O)O)CCC1.[NH2-].[NH2-].[Pt+2] [Carboplatin] + O=C(CCCCCCC(=O)Nc1ccccc1)NO [Vorinostat]
cell viability [%]
Settings | partner drug concentration 0 nM | partner drug concentration 1 nM | partner drug concentration 10 nM | partner drug concentration 100 nM | partner drug concentration 1000 nM | partner drug concentration 10000 nM
[1], carboplatin concentration 10 nM | 95.8 | 104 | 37.5 | 107 | 87.6 | 80.2
[1], carboplatin concentration 100 nM | 82.8 | 104 | 102 | 97.6 | 91.9 | 77.7
[1], carboplatin concentration 1000 nM | 86 | 109 | 108 | 98.1 | 81.2 | 77.3
[1], carboplatin concentration 10000 nM | 80.4 | 97.8 | 90.4 | 90.4 | 87.5 | 59.6
[1], carboplatin concentration 100000 nM | 57.5 | 35.8 | 41.7 | 33.9 | 25.8 | 3.4
[2], carboplatin concentration 10 nM | 90.3 | 88.4 | 82.3 | 101 | 67.9 | 19.7
[2], carboplatin concentration 100 nM | 87.3 | 98 | 91.7 | 90.8 | 74.3 | 13.3
[2], carboplatin concentration 1000 nM | 107 | 105 | 47.4 | 101 | 68.9 | 10.1
[2], carboplatin concentration 10000 nM | 89.9 | 95.3 | 101 | 104 | 42.1 | 10.4
[2], carboplatin concentration 100000 nM | 23.6 | 21.6 | 17 | 11.3 | 7.3 | 6.7
